Values joined by “and” are separate entries in the source; they are usually repeats but may differ in a detail not shown here. Equal entries are not always repeated. “Also recorded” adds a separate entry of the source. Where two headings read alike, the source gives them in different places.
Key:
recombinant LstiGOBP2 = recombinant LstiGOBP2 (Loxostege sticticalis, UniProt C6ZDA6); test: biochemical; type: binding; conditions: for binding to LstiGOBP2 (in words): competitive displacement of 1-NPN
Sequence of recombinant LstiGOBP2 (C6ZDA6 entry or part of it): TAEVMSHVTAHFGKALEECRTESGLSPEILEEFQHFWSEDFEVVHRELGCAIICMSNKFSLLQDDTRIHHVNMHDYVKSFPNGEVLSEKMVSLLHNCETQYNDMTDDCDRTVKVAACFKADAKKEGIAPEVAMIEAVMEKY
Protocol: Fluorescence spectra were recorded in a right angle configuration on a Lengguang 970 CRT spectrofluorimeter (Shanghai Jingmi, China) at room temperature using a 1-cm light path fluorimeter quartz cuvette. Slit widths of 10 nm were selected for both excitation and emission. The spectra data were processed using 970 CRT 2.0l software.
N-phenyl-1-naphthylamine (1-NPN) was dissolved in methanol to yield a 1 mM stock solution. […] 1-NPN was excited at 337 nm and emission spectra were recorded between 350 and 600 nm. Spectra were recorded with high-speed scanning. All ligands used in competition experiments were dissolved in spectrophotometric-grade methanol. Binding data were collected in three independent measurements.
Bound ligand was evaluated from the values of fluorescence intensity assuming that the protein was 100% active, with a stoichiometry of 1∶1 (protein∶ligand) at saturation. The K1-NPN values were estimated using Prism 5 (GraphPad Software, Inc.) by nonlinear regression for a unique site of binding. The curves were linearized using Scatchard plots.

L. sticticalis antennae = test: Electroantennogram (EAG) recording; design: species or system Loxostege sticticalis; conditions: for EAG depolarization / EAG response (in words): 10 mg/ml in hexane; for EAG depolarization: highest EAG responses; for EAG response (in words): adult antennae
Protocol: Antennae of adult moths were excised at the base and immediately placed on an EAG Micromanipulator MP-15 (Syntech) platform for EAG. Antennae were attached to two electrode holders with non-drying clay (Spectra 360 Electrode Gel). […] Pure chemicals were diluted with hexane to a final concentration of 10 mg/ml. EAG signals were amplified, monitored, and analyzed with EAG-Pro software (Syntech). The preparation was held in a humidified air stream delivered by a Syntech stimulus controller (CS-55 model; Syntech) at 500 ml/min, to which a stimulus pulse of 40 ml/min was added for […]. Signals were recorded for 10 sec, beginning at 2 sec before the onset of the stimulus pulse. An aliquot (10 µl) of each stimulus was loaded onto a filter paper strip. After each sample was tested, hexane was tested as a control. EAG responses of at least three antennae were recorded.

LstiGOBP1 = tested on: LstiGOBP1; design: method as in earlier work; conditions: cited from earlier work
[1] = at ligand concentration 20 µM, protein 2 µM, 1-NPN probe, read-out: Int (fluorescence intensity as percent of the initial fluorescence)
[2] = calculated from IC50: Ki = [IC50]/1+[1-NPN]/K1-NPN, read-out: Ki (relative dissociation constant)
[3] = read-out: Int (fluorescence intensity as percent of the initial fluorescence)
[4] = protein 2 µM, 1-NPN probe, ligand titrated to 2–50 µM in methanol, read-out: IC50 (concentration of ligand halving the initial fluorescence intensity)
[5] = IC50 (concentration of ligand halving the initial fluorescence intensity), protein 2 µM, 1-NPN probe, ligand titrated to 2–50 µM in methanol
[6] = Ki (relative dissociation constant), calculated from IC50: Ki = [IC50]/1+[1-NPN]/K1-NPN
[7] = read-out: Int (fluorescence intensity as percent of the initial fluorescence), at ligand concentration 20 µM, protein 2 µM, 1-NPN probe
[8] = at ligand concentration 20 µM, protein 2 µM, 1-NPN probe

C=CC(C)(O)CCC=C(C)C (single isomer, unassigned; (-)) [(-)-Linalool]
IC50 (recombinant LstiGOBP2): 28 µM | Ki (recombinant LstiGOBP2): 16.5 µM | activity at 20 µM (recombinant LstiGOBP2; [1]): 53%

CCCCCCC=O [1-Heptanal]
IC50 (recombinant LstiGOBP2): 24 µM | Ki (recombinant LstiGOBP2; [2]): 14.1 µM | activity at 20 µM (recombinant LstiGOBP2; [3]): 52%

CCCCCCCO [1-Heptanol]
IC50 (recombinant LstiGOBP2): 10.5 µM | Ki (recombinant LstiGOBP2; [2]): 6.2 µM | activity at 20 µM (recombinant LstiGOBP2; [3]): 40% | EAG depolarization (L. sticticalis antennae): −1.6 mV

CCCCCC=O [1-Hexanal]
IC50 (recombinant LstiGOBP2): 12.5 µM | Ki (recombinant LstiGOBP2): 7.3 µM | binding to LstiGOBP2 (in words) (recombinant LstiGOBP2): high affinities | activity at 20 µM (recombinant LstiGOBP2; [3]): 36%

CCCCCCO [1-Hexanol]
IC50 (recombinant LstiGOBP2): 11 µM | Ki (recombinant LstiGOBP2; [2]): 6.5 µM | activity at 20 µM (recombinant LstiGOBP2; [3]): 42%

c1ccc(Nc2cccc3ccccc23)cc1 [1-NPN, N-phenyl-1-naphthylamine, reference compound]
Kd (recombinant LstiGOBP2): ~1.44 µM

CCCCCCCCC=O [1-Nonanal]
activity at 20 µM (recombinant LstiGOBP2; [1]): 66% | Ki (recombinant LstiGOBP2; [2]): 22.9 µM | binding to LstiGOBP2 (in words) (recombinant LstiGOBP2): very weak binding affinity | IC50 (recombinant LstiGOBP2; [4]): 39 µM

CCCCCCCC=O [1-Octanal]
activity at 20 µM (recombinant LstiGOBP2; [1]): 52% | Ki (recombinant LstiGOBP2; [2]): 14.1 µM | IC50 (recombinant LstiGOBP2; [4]): 24 µM | EAG depolarization (L. sticticalis antennae): −1.6 mV

C=CC(O)CCCCC (stereo not shown) [1-Octen-3-ol]
EAG response (in words) (L. sticticalis antennae): strong responses; also recorded: intensive responses | binding to LstiGOBP1 (in words) (LstiGOBP1): present an affinity

CCCCC=O [1-Pentanal]
activity at 20 µM (recombinant LstiGOBP2; [1]): 46% | Ki (recombinant LstiGOBP2; [2]): 8.2 µM | binding to LstiGOBP2 (in words) (recombinant LstiGOBP2): high affinities | IC50 (recombinant LstiGOBP2; [4]): 14 µM

CC(C)(C)c1ccc(O)c(C(C)(C)C)c1 [2,4-Di-tert-butylphenol]
IC50 (recombinant LstiGOBP2): 20 µM | Ki (recombinant LstiGOBP2): 11.8 µM | binding to LstiGOBP2 (in words) (recombinant LstiGOBP2): high affinity | activity at 20 µM (recombinant LstiGOBP2; [3]): 50% | EAG response (in words) (L. sticticalis antennae): weak effects; also recorded: weak response

CC=CCCCO [4-Hexen-1-ol]
IC50 (recombinant LstiGOBP2): 26 µM | Ki (recombinant LstiGOBP2): 15.3 µM | activity at 20 µM (recombinant LstiGOBP2; [1]): 58%

CC(C)=CCCC(C)O (stereo not shown) [6-Methyl-5-hepten-2-ol]
activity at 20 µM (recombinant LstiGOBP2; [1]): 63% | Ki (recombinant LstiGOBP2; [2]): 16.5 µM | IC50 (recombinant LstiGOBP2; [4]): 28 µM

CC(=O)CCC=C(C)C [6-Methyl-5-hepten-2-one]
IC50 (recombinant LstiGOBP2; [5]): 28 µM | Ki (recombinant LstiGOBP2; [6]): 16.5 µM | activity at 20 µM (recombinant LstiGOBP2; [7]): 64%

C=C1CC/C=C(\C)CC[C@@H]2[C@@H]1CC2(C)C [(-)-Trans-caryophyllene]
IC50 (recombinant LstiGOBP2): > 50 µM | binding to LstiGOBP2 (in words) (recombinant LstiGOBP2): very weak binding affinity | activity at 20 µM (recombinant LstiGOBP2; [3]): 86%

O=Cc1ccccc1 [Benzaldehyde]
IC50 (recombinant LstiGOBP2; [5]): 19 µM | Ki (recombinant LstiGOBP2; [6]): 11.2 µM | activity at 20 µM (recombinant LstiGOBP2; [7]): 48% | EAG response (in words) (L. sticticalis antennae): weak response

c1ccc2scnc2c1 [Benzothiazole]
IC50 (recombinant LstiGOBP2): 22 µM | Ki (recombinant LstiGOBP2): 12.9 µM | activity at 20 µM (recombinant LstiGOBP2; [3]): 52%

C=C1C2CCC(C2)C1(C)C (stereo not shown) [Camphene]
IC50 (recombinant LstiGOBP2; [4]): 23 µM | activity at 20 µM (recombinant LstiGOBP2; [3]): 54%

CC12CCC(CC1=O)C2(C)C (stereo not shown) [Camphor]
IC50 (recombinant LstiGOBP2): 14 µM | Ki (recombinant LstiGOBP2; [2]): 8.2 µM | activity at 20 µM (recombinant LstiGOBP2; [3]): 41%

O=C/C=C/c1ccccc1 [Cinnamaldehyde]
IC50 (recombinant LstiGOBP2; [5]): 17 µM | Ki (recombinant LstiGOBP2; [6]): 10 µM | activity at 20 µM (recombinant LstiGOBP2; [7]): 45% | EAG response (in words) (L. sticticalis antennae): weak response

CCC/C=C\CO [Cis-2-hexen-1-ol]
IC50 (recombinant LstiGOBP2): 24 µM | Ki (recombinant LstiGOBP2): 14.1 µM | activity at 20 µM (recombinant LstiGOBP2; [1]): 59%

CC/C=C\CCO [Cis-3-hexen-1-ol]
IC50 (recombinant LstiGOBP2): 19 µM | Ki (recombinant LstiGOBP2): 11.2 µM | binding to LstiGOBP2 (in words) (recombinant LstiGOBP2): high binding affinities | activity at 20 µM (recombinant LstiGOBP2; [3]): 49% | EAG response (in words) (L. sticticalis antennae): high EAG response

CC/C=C\CCOC(C)=O [Cis-3-hexenyl acetate]
activity at 20 µM (recombinant LstiGOBP2; [1]): 57% | Ki (recombinant LstiGOBP2; [2]): 17.1 µM | IC50 (recombinant LstiGOBP2; [4]): 29 µM

COC(=O)c1ccccc1C(=O)OC [Dimethyl phthalate]
IC50 (recombinant LstiGOBP2; [5]): 20 µM and 36 µM | Ki (recombinant LstiGOBP2; [6]): 11.8 µM and 21.2 µM | Int (fluorescence intensity as percent of the initial fluorescence) (recombinant LstiGOBP2; at ligand concentration 20 µM, protein 2 µM, 1-NPN probe, 20 µM): 64% | activity at 20 µM (recombinant LstiGOBP2; [7]): 50%

CC(C)=CCC/C(C)=C/CO [Geraniol]
IC50 (recombinant LstiGOBP2; [5]): 22 µM | Ki (recombinant LstiGOBP2; [6]): 12.9 µM | activity at 20 µM (recombinant LstiGOBP2; [7]): 54%

COC(=O)c1ccccc1O [Methyl salicylate]
IC50 (recombinant LstiGOBP2): > 50 µM | activity at 20 µM (recombinant LstiGOBP2; [3]): 83%

C=CC(=C)CCC=C(C)C [Myrcene]
activity at 20 µM (recombinant LstiGOBP2; [1]): 56% | Ki (recombinant LstiGOBP2; [2]): 14.7 µM | IC50 (recombinant LstiGOBP2; [4]): 25 µM

CCCCCCCCCCCCCCC [Pentadecane]
binding to LstiGOBP1 (in words) (LstiGOBP1): bind

O=CCc1ccccc1 [Phenyl acetaldchyde]
Int (fluorescence intensity as percent of the initial fluorescence) (recombinant LstiGOBP2; [8]): 50% | Ki (recombinant LstiGOBP2; [2]): 11.8 µM | IC50 (recombinant LstiGOBP2; [4]): 20 µM

C=C(C)[C@H]1CC=C(C)CC1 [R-(+)-Limonene]
binding to LstiGOBP2 (in words) (recombinant LstiGOBP2): do not show affinities | EAG response (in words) (L. sticticalis antennae): strong responses | binding to LstiGOBP1 (in words) (LstiGOBP1): do not show affinities

CCC/C=C/CO [Trans-2-hexen-1-ol]
EAG response (in words) (L. sticticalis antennae): intensive responses | EAG response (in words) (L. sticticalis antennae; listed as E-2-hexeno1): strong responses | binding to LstiGOBP1 (in words) (LstiGOBP1): present an affinity

CCC/C=C/C=O [Trans-2-hexenal]
IC50 (recombinant LstiGOBP2): 10.5 µM | Ki (recombinant LstiGOBP2): 6.2 µM | binding to LstiGOBP2 (in words) (recombinant LstiGOBP2): high binding affinities | EAG response (in words) (L. sticticalis antennae): high EAG response

CCC/C=C/COC(C)=O [Trans-2-hexenyl acetate]
activity at 20 µM (recombinant LstiGOBP2; [1]): 59% | Ki (recombinant LstiGOBP2; [2]): 16.5 µM | IC50 (recombinant LstiGOBP2; [4]): 28 µM

CC/C=C/CCCCCCCCCCOC(C)=O [Trans-11-tetradecen-1-yl acetate]
activity at 20 µM (recombinant LstiGOBP2; [1]): 48% | Ki (recombinant LstiGOBP2; [2]): 10.6 µM | binding to LstiGOBP2 (in words) (recombinant LstiGOBP2): bind strongly; also recorded: high binding affinity | IC50 (recombinant LstiGOBP2; [4]): 18 µM | EAG response of the male antennae (in words) (L. sticticalis antennae; male antennae, 10 mg/ml): highest among all the volatiles tested | EAG response difference between males and females (L. sticticalis antennae; male vs female antennae): significantly different

CC1=CC[C@H](C(C)C)C=C1 [α-Phellandrene]
binding to LstiGOBP2 (in words) (recombinant LstiGOBP2): do not show affinities | EAG response (in words) (L. sticticalis antennae): strong responses | binding to LstiGOBP1 (in words) (LstiGOBP1): do not show affinities

CC(=O)/C=C/C1C(C)=CCCC1(C)C (stereo not drawn) [α-ionone]
IC50 (recombinant LstiGOBP2; [5]): 8 µM | Ki (recombinant LstiGOBP2; [6]): 4.7 µM | binding to LstiGOBP2 (in words) (recombinant LstiGOBP2): strongest affinities | activity at 20 µM (recombinant LstiGOBP2; [7]): 39% | EAG response (in words) (L. sticticalis antennae): weak effects; also recorded: failed to elicit a strong electrophysiological response

CC(=O)/C=C/C1=C(C)CCCC1(C)C [β-ionone]
IC50 (recombinant LstiGOBP2; [5]): 11 µM | Ki (recombinant LstiGOBP2; [6]): 6.5 µM | binding to LstiGOBP2 (in words) (recombinant LstiGOBP2): strongest affinities | activity at 20 µM (recombinant LstiGOBP2; [7]): 37% | EAG response (in words) (L. sticticalis antennae): weak effects; also recorded: failed to elicit a strong electrophysiological response

Iso-octanol
Int (fluorescence intensity as percent of the initial fluorescence) (recombinant LstiGOBP2; [8]): 58% | Ki (recombinant LstiGOBP2; [2]): 16.5 µM | IC50 (recombinant LstiGOBP2; [4]): 28 µM

Reference: publication PMC3316592, “Functional Analysis of General Odorant Binding Protein 2 from the Meadow Moth, Loxostege sticticalis L. (Lepidoptera: Pyralidae)” (PLoS ONE, 2012)
